# Patent US10035790B2, “RORγ modulators” (BRISTOL-MYERS SQUIBB COMPANY, priority 2012, dated 2018)
# Read-outs that look alike come from different tables or passages of the source.
# Target: T1, ligand binding domain of human RORγ (A262-S507) (Homo sapiens, UniProt P51449)
# T1 construct: made in house; host or cells: E. coli
# T1 sequence (P51449 262-507): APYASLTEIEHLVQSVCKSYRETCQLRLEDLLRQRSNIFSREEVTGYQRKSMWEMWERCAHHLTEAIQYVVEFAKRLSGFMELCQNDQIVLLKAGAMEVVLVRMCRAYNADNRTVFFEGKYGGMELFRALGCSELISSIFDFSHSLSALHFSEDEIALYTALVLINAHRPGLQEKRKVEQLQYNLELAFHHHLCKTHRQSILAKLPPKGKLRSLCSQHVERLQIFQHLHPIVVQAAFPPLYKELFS
# Assay: General RORγ SPA binding assay (competition with [3H]25-hydroxycholesterol)
# Conditions: inhibition of [3H]25-hydroxycholesterol binding
# Method in brief: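 N-terminally His-tagged protein was expressed in E. coli and nickel-purified. Then 50 nM protein was preincubated with compound for 15 min at room temperature in PBS with 0.5% fatty acid free BSA, followed by radioligand for 15 min and copper His-tag SPA beads for 30 min. IC50 came from percent inhibition of binding.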
# [1] = RORγ SPA binding assay, read-out: IC50
IC50 [1],Structure (SMILES),"IC50 (IC50, RORγ SPA binding assay)"
6.2 nM,"Cc1cc(C)cc(CNC(=O)c2cnc(C)nc2C2CCN(C(=O)Oc3ccccc3Cl)CC2)c1 [Compound A119, 2-Chlorophenyl 4-[5-({[(3,5-dimethylphenyl)methyl]amino}carbonyl)-2-methylpyrimidin-4-yl]piperidine-1-carboxylate]",
7.3 nM,CNc1nc(C)nc(C2CCN(C(=O)Cc3c(F)cccc3F)CC2)c1C(=O)NCc1cccc(Cl)c1 [Compound A109],
50 nM,"Cc1cc(C)cc(CNC(=O)c2cnc(C)nc2C2CCN(C(=O)Cc3ccccc3F)CC2)c1 [Compound A12, N-(3,5-dimethylbenzyl)-4-(1-(2-(2-fluorophenyl)acetyl)piperidin-4-yl)-2-methylpyrimidine-5-carboxamide]",
2.5 nM,"C/C(=N\Oc1cccc(Cl)c1)c1cnc(C)nc1C1CCN(C(=O)Cc2c(F)cccc2F)CC1 [Compound B5, (E)-1-(4-(5-(1-((3-chlorophenoxy)imino)ethyl)-2-methylpyrimidin-4-yl)piperidin-1-yl)-2-(2,6-difluorophenyl)ethanone]",
1650 nM,"Cc1cc(C)cc(CNC(=O)c2c(C(C)C)nc(C)nc2C2CCN(C(=O)Cc3c(F)cccc3F)CC2)c1 [Compound A84, 4-(1-(2-(2,6-difluorophenyl)acetyl)piperidin-4-yl)-N-(3,5-dimethylbenzyl)-6-isopropyl-2-methylpyrimidine-5-carboxamide]",
79 nM,"Cc1cc(C)cc(COCc2cnc(C)nc2C2CCN(C(=O)Cc3c(F)cccc3F)CC2)c1 [Compound E10, 2-(2,6-Difluorophenyl)-1-(4-(5-((3,5-dimethylbenzyloxy)methyl)-2-methylpyrimidin-4-yl)piperidin-1-yl)ethanone]",
4.6 nM,"O=C(NNc1cccc(Cl)c1)c1cnc(C2CC2)nc1C1CCN(C(=O)Cc2c(F)cccc2F)CC1 [Compound G2, N′-(3-chlorophenyl)-2-cyclopropyl-4-(1-(2-(2,6-difluorophenyl)acetyl)piperidin-4-yl)pyrimidine-5-carbohydrazide]",
81 nM,"O=C(Cc1c(F)cccc1F)N1CCC(c2ncncc2C(=S)NCc2ccc(Cl)c(Cl)c2)CC1 [Compound L1, N-(3,4-Dichlorobenzyl)-4-(1-(2-(2,6-difluorophenyl)acetyl)piperidin-4-yl)pyrimidine-5-carbothioamide]",
7.2 nM,"Cc1ncc(C(=O)NCc2cc(Cl)cc(Cl)c2)c(C2CCN(C(=O)Cc3c(F)cccc3F)CC2)n1 [Compound A51, N-(3,5-dichlorobenzyl)-4-(1-(2-(2,6-difluorophonyl)acetyl)piperidin-4-yl)-2-methylpyrimidine-5-carboxamide]",
137 nM,"C/C(=N/Oc1cccc(C(F)(F)F)c1)c1cnc(C)nc1C1CCN(C(=O)Cc2c(F)cccc2F)CC1 [Compound B4, (Z)-2-(2,6-Difluorophenyl)-1-(4-(2-methyl-5-(1-(3-(trifluoromethyl)phenoxyimino)ethyl)pyrimidin-4-yl)piperidin-1-yl)ethanone]",
398 nM,"O=C(NCc1cccc(Cl)c1)c1cnc(O)nc1C1CCN(C(=O)Cc2c(F)cccc2F)CC1 [Compound A98, N-(3-chlorobenzyl)-4-(1-(2-(2,6-difluorophenyl)acetyl)piperidin-4-yl)-2-hydroxypyrimidine-5-carboxamide]",
5.4 nM,"Cc1cc(C)cc(CNC(=O)c2cnc(C3CC3)nc2C2CCN(C(=O)Cc3c(F)cccc3F)CC2)c1 [Compound A43, 2-cyclopropyl-4-(1-(2-(2,6-difluorophenyl)acetyl)piperidin-4-yl)-N-(3,5-dimethylbenzyl)pyrimidine-5-carboxamide]",
231 nM,"Cc1ncc(C(=O)NCc2cccc(C(F)(F)F)n2)c(C2(F)CCN(C(=O)Cc3c(F)cccc3F)CC2)n1 [Compound A104, 4-(1-(2-(2,6-difluorophenyl)acetyl)-4-fluoropiperidin-4-yl)-2-methyl-N-((6-(trifluoromethyl)pyridin-2-yl)methyl)pyrimidine-5-carboxamide]",
175 nM,"CC(C)Oc1ncc(C(=O)NCc2cccc(Cl)c2)c(C2CCN(C(=O)Cc3c(F)cccc3F)CC2)n1 [Compound A95, N-(3-chlorobenzyl)-4-(1-(2-(2,6-difluorophenyl)acetyl)piperidin-4-yl)-2-isopropoxypyrimidine-5-carboxamide]",
433 nM,"Cc1cc(C)cc(CNC(=O)c2cnc(C)nc2C2CCN(CCc3ccccc3Cl)CC2)c1 [Compound A100, 4-(1-(2-chlorophenethyl)piperidin-4-yl)-N-(3,5-dimethylbenzyl)-2-methylpyrimidine-5-carboxamide]",
93.3 nM,"C/C(=N\Oc1ccnc(C(F)(F)F)n1)c1cnc(C)nc1C1CCN(C(=O)Nc2c(F)cccc2C(F)(F)F)CC1 [Compound B39, N-[2-Fluoro-6-(trifluoromethyl)phenyl]-4-{2-methyl-5-[(1E)-N-{[2-(trifluoromethyl)pyrimidin-4-yl]oxy}ethanimidoyl]pyrimidin-4-yl}piperidine-1-carboxamide]",
,"CC(O)(COc1ccnc(C(F)(F)F)n1)c1cnc(N)nc1C1CCN(C(=O)Oc2c(F)cccc2F)CC1 (centres unmarked) [Compound D46, 2,6-Difluorophenyl 4-[2-amino-5-(1-hydroxy-1-methyl-2-{[2-(trifluoromethyl)pyrimidin-4-yl]oxy}ethyl)pyrimidin-4-yl]piperidine-1-carboxylate]",6.3 nM
12.1 nM,"Cc1cc(C)cc(CNC(=O)c2cnc(C)nc2C2CCN(C(=O)Nc3c(F)cccc3F)CC2)c1 [Compound A107, 4-(1-((2,6-Difluorophenyl)carbamoyl)piperidin-4-yl)-N-(3,5-dimethylbenzyl)-2-methylpyrimidine-5-carboxamide]",
158 nM,"Cc1nc(C)c(-c2nnc(-c3ccnc(C(F)(F)F)n3)o2)c(C2CCN(C(=O)Nc3ccccc3Cl)CC2)n1 [Compound C29, N-(2-chlorophenyl)-4-(2,6-dimethyl-5-{5-[2-(trifluoromethyl)pyrimidin-4-yl]-1,3,4-oxadiazol-2-yl}pyrimidin-4-yl)piperidine-1-carboxamide]",
3.4 nM,"Cc1nc(C)c(C=NOc2cccc(C(F)(F)F)c2)c(C2CCN(C(=O)Cc3c(F)cccc3F)CC2)n1 [Compound B31, 4-{1-[(2,6-Difluorophenyl)acetyl]piperidin-4-yl}-2,6-dimethylpyrimidine-5-carbaldehyde O-[3-(trifluoromethyl)phenyl]oxime]",
21.2 nM,"Cc1ncc(C(F)(F)CNc2nccc(C(F)(F)F)n2)c(C2CCN(C(=O)Nc3c(F)cccc3F)CC2)n1 [Compound N20, N-(2,6-Difluorophenyl)-4-[5-(1,1-difluoro-2-{[4-(trifluoromethyl)pyrimidin-2-yl]amino}ethyl)-2-methylpyrimidin-4-yl]piperidine-1-carboxamide]",
112 nM,"COc1ccc(CNc2ncc(C(C)(O)COc3ccnc(C(F)(F)F)n3)c(C3CCN(C(=O)Nc4c(F)cccc4F)CC3)n2)c(OC)c1 (centres unmarked) [Compound D37, 4-[2-({[2,4-Bis(methyloxy)phenyl]methyl}amino)-5-(1-hydroxy-1-methyl-2-{[2-(trifluoromethyl)pyrimidin-4-yl]oxy}ethyl)pyrimidin-4-yl]-N-(2,6-difluorophenyl)piperidine-1-carboxamide]",
8.7 nM,"Cc1ncc(C(C)(O)COc2cccc(C(F)(F)F)n2)c(C2CCN(C(=O)Nc3c(F)cccc3F)CC2)n1 (centres unmarked) [Compound D25, N-(2,6-difluorophenyl)-4-[5-(1-hydroxy-1-methyl-2-{[6-(trifluoromethyl)pyridin-2-yl]oxy}ethyl)-2-methylpyrimidin-4-yl]piperidine-1-carboxamide]",
1730 nM,"Cc1ncc(C(=O)NCc2cccc(Cl)c2)c(C2(C)CCN(C(=O)Cc3c(F)cccc3F)CC2)n1 [Compound A102, N-(3-Chlorobenzyl)-4-(1-(2-(2,6-difluorophenyl)acetyl)-4-methylpiperidin-4-yl)-2-methylpyrimidine-5-carb oxamide]",
1340 nM,"Cc1ncc(C(C)(C)CNc2ccnc(C(F)(F)F)n2)c(C2CCN(C(=O)Nc3c(F)cccc3F)CC2)n1 [Compound F8, N-(2,6-Difluorophenyl)-4-(2-methyl-5-(2-methyl-1-(2-(trifluoromethyl)pyrimidin-4-ylamino)propan-2-yl)pyrimidin-4-yl)piperidine-1-carboxamide]",
150 nM,"CC(=O)NCCC(=O)NCC(O)(COc1cccc(C(F)(F)F)n1)c1cnc(C)nc1C1CCN(C(=O)Nc2c(F)cccc2F)CC1 (stereo not drawn) [Compound N41, 4-(5-{2-[(N-Acetyl-beta-alanyl)amino]-1-hydroxy-1-({[6-(trifluoromethyl)pyridin-2-yl]oxy}methyl)ethyl}-2-methylpyrimidin-4-yl)-N-(2,6-difluorophenyl)piperidine-1-carboxamide]",
3 nM,"Cc1cc(C)cc(CNC(=O)c2cnc(C)nc2C2C=CN(C(=O)Cc3c(F)cccc3F)CC2)c1 (centres unmarked) [Compound A114, 4-(1-(2-(2,6-Difluorophenyl)acetyl)-1,2,3,4-tetrahydropyridin-4-yl)-N-(3,5-dimethylbenzyl)-2-methylpyrimidine-5-carboxamide]",
696 nM,"Cc1ncc(/C(CO)=N/Oc2cccc(C(F)(F)F)c2)c(C2CCN(C(=O)Cc3c(F)cccc3F)CC2)n1 [Compound B28, (Z)-2-(2,6-difluorophenyl)-1-(4-(5-(2-hydroxy-1-((3-(trifluoromethyl)phenoxy)imino)ethyl)-2-methylpyrimidin-4-yl)piperidin-1-yl)ethanone]",

Structure (SMILES),IC50 [1],"IC50 (IC50, RORγ SPA binding assay)"
"Nc1ncc(C(N)COc2cccc(C(F)(F)F)n2)c(C2CCN(C(=O)Oc3ccccc3F)CC2)n1 (centres unmarked) [Compound N29, 2-Fluorophenyl 4-[2-amino-5-(1-amino-2-{[6-(trifluoromethyl)pyridin-2-yl]oxy}ethyl)pyrimidin-4-yl]piperidine-1-carboxylate]",10000 nM,
